{
  "source": "patent US20110230430A1",
  "about": "“SAPONIN EXTRACT FROM SAPONARIA SPP. AND USES THEREOF” (NATIONAL RESEARCH COUNCIL OF CANADA, priority 2008, published 2011)",
  "format_in_all_cases": "cell-based, human",
  "key": {"[1]": {"system": "CRL-2522 (normal fibroblast) cells", "experiment": "Hoechst 33342 staining of CRL-2522 cells", "conditions": "7 μM PC1448, 24 hours", "source_text": "(§1) Apoptosis can also be measured by Hoechst 33342 Staining. Cells undergoing apoptosis show several characteristic morphological changes. These changes include cell shrinkage and rounding, and the formation of cytoplasmic blebs on the cell surface. Nuclear material condenses along the edge of the nucleus followed by complete condensation and nuclear fragmentation (Hacker, G., 2000). Apoptotic cells eventually break up into membrane bound vesicles, which are known as apoptotic bodies. Hoechst 33342 is a fluorescent DNA-binding dye that allows visualization of chromatin distribution within a cell. Apoptotic nuclei have highly condensed chromatin, often in crescent shapes around the periphery of the nucleus.\n(§2) A further indication of apoptotic activity, in addition to the assays described above, can be derived from observations of changes in cell architecture evident after induction of apoptosis. Hoechst 33342 is a fluorescent DNA-binding dye that allows visualization of chromatin distribution within a cell.\n(§3) Cells undergoing apoptosis show several characteristic morphological changes. These changes include cell shrinkage and rounding, and the formation of cytoplasmic blebs on the cell surface. Nuclear material condenses along the edge of the nucleus followed by complete condensation and nuclear fragmentation (Hacker, G., 2000). […]"}, "WiDr colon cancer cells": {"system": "WiDr colon cancer cells", "experiment": "Dual Sensor: MitoCasp Assay in WiDr colon cancer cells", "conditions": "2.5 μM, 5.0 μM, 10 μM, and 15 μM, 24 hours", "source_text": "Techniques to assay enzymatic and signaling processes involved in apoptosis have been developed as standard protocols. One example of an early step in apoptosis, is the release of cytochrome C from mitochondria and the activation of caspase-3. Induction of the caspases (a series of cytosolic proteases) is one of the most consistently observed features of apoptosis. Caspases are a family of proteolytic enzymes that transmit the apoptotic signal using a proteolytic cascade. […] Caspases 3 and 7 are effector caspases, central to the caspase cascade pathways. In particular, caspase-3 plays a central role in the process. When caspases are activated, they cleave target proteins; one of the most important of these is poly-(ADP-ribose) polymerase (PARP), which is a protein located in the nucleus. […] Collapse of the mitochondrial membrane potential during apoptosis prevents the dye from accumulating in the mitochondria resulting in a decrease in fluorescent intensity that can be detected with flow cytometry. […] In this assay, caspase 3/7 activity is detected using a cell permeable carboxyfluorescein labeled caspase inhibitor, which binds covalently to active caspases 3 and 7. Cells that contain bound inhibitor are detected by an increase in fluorescence when samples are analyzed by flow cytometry. […]"}, "CRL-2522 cells": {"system": "CRL-2522 cells", "experiment": "APO LOGIX Carboxyfluorescein Caspase 9 Detection Kit in CRL-2522 cells", "source_text": "In a still further apoptotic assay, apoptosis can be measured by the APO LOGIX™ Carboxyfluorescein Caspase 9 Detection Kit. The APO LOGIX™ Carboxyfluorescein Caspase 9 Detection Kit uses a cell permeable carboxyfluorescein labeled caspase inhibitor, which binds covalently to active caspases 9. Caspase 9 is involved in initiating apoptosis through the mitochondrial pathway (Budihardjo I., et al. 1999). Cells that contain bound inhibitor are detected by an increase in fluorescence when samples are analyzed by flow cytometry.\nCRL-2522 cells, acquired from ATCC, (American Type Culture Collection) are normal fibroblast cells that originated from human foreskin. CRL-2522 cells were maintained in RPMI 1640 medium (Gibco) supplemented with 10% fetal bovine serum (Cansera), 100 U/mL penicillin, 100 μg/mL streptomycin and 0.25 μg/mL amphotericin B. Cultures were maintained in medium at 37° C. with 5% CO2 and 100% relative humidity.\nCRL-2522 cells were treated with PC1448 and assayed for apoptosis as described above for PC-3 cells."}, "[2]": {"system": "MDA-MB-231 (breast cancer) cells", "experiment": "Hoechst 33342 staining of MDA-MB-231 cells", "conditions": "7 μM PC1448, 24 hours", "source_text": "as §1, §2, §3"}},
  "data": [
    {"substance": "Segetoside H [PC1448]", "values": [
      {"measurement": "Nuclear morphology after Hoechst 33342 staining (in words, FIG. 4)", "setting": "[1]", "result": "nuclear changes characteristic of apoptotic cells"},
      {"measurement": "Induction of apoptosis (in words, FIG. 8)", "setting": "WiDr colon cancer cells", "result": "induces apoptosis"},
      {"measurement": "Change in Caspase 9 positive cells (in words)", "setting": "CRL-2522 cells; 14 μM PC1448, 10 to 48 hr", "result": "No increase in Caspase 9 positive cells"},
      {"measurement": "Caspase 9 positive cells", "setting": "CRL-2522 cells; 14 μM PC1448, 10 hr", "result": 15.9, "unit": "%"},
      {"measurement": "Caspase 9 positive cells", "setting": "CRL-2522 cells; 14 μM PC1448, 24 hr", "result": 10.6, "unit": "%"},
      {"measurement": "Caspase 9 positive cells", "setting": "CRL-2522 cells; 14 μM PC1448, 48 hr", "result": 9.5, "unit": "%"},
      {"measurement": "Nuclear morphology after Hoechst 33342 staining (in words, FIG. 4)", "setting": "[2]", "result": "nuclear changes characteristic of apoptotic cells"}
    ]}
  ]
}
